System: G-CSF, MCP-1, MIP-1β, TNFα
Experiment: Phase I clinical study: pharmacodynamic response, plasma immune mediators (MAP)
Format: in vivo
Conditions: human, s.c., first dose
Protocol: Study Procedures: VTX-2337 was administered weekly via subcutaneous injection on Days 1, 8, and 15 of a 28-day dosing cycle for two cycles. Using a modified Fibonacci dose-escalation scheme, successive cohorts received doses ranging from 0.1 mg/m^2 to 3.9 mg/m^2 of VTX-2337. Plasma samples were collected for pharmacokinetic analysis after the first dose of the first treatment cycle and for pharmacodynamic analyses after the first dose of the first and second treatment cycles.
To evaluate the pharmacodynamic (PD) response to VTX-2337, blood was collected at 0, 4, 8, 24 hours after subcutaneous administration of the first dose of the first cycle of VTX-2337. Plasma levels of immune mediators were quantified using the human multiple analyte panel (MAP), version 1.8 (Rules Based Medicine). […] Levels of mediators in plasma collected from 9 healthy volunteers are shown for comparison to the oncology population. […]

CCCN(CCC)C(=O)C1=Cc2ccc(-c3ccc(C(=O)N4CCCC4)cc3)cc2N=C(N)C1 [VTX-2337, 2-amino-N,N-dipropyl-8-(4-(pyrrolidine-1-carbonyl)phenyl)-3H-benzo[b]azepine-4-carboxamide]
G-CSF plasma level (Cohort 1 (0.1 mg/m^2), 0 Hr): 9.7 ± 1.9 pg/mL
MCP-1 plasma level (Cohort 1 (0.1 mg/m^2), 0 Hr): 247 ± 62.7 pg/mL
MIP-1β plasma level (Cohort 1 (0.1 mg/m^2), 0 Hr): 201 ± 73.8 pg/mL
TNFα plasma level (Cohort 1 (0.1 mg/m^2), 0 Hr): 11.4 ± 4.4 pg/mL
G-CSF plasma level (Cohort 1 (0.1 mg/m^2), 4 Hr): 8.6 ± 1.6 pg/mL
MCP-1 plasma level (Cohort 1 (0.1 mg/m^2), 4 Hr): 223 ± 58.8 pg/mL
MIP-1β plasma level (Cohort 1 (0.1 mg/m^2), 4 Hr): 196 ± 71.9 pg/mL
TNFα plasma level (Cohort 1 (0.1 mg/m^2), 4 Hr): 10.5 ± 2.6 pg/mL
G-CSF plasma level (Cohort 1 (0.1 mg/m^2), 8 Hr): 11.9 ± 4.4 pg/mL
MCP-1 plasma level (Cohort 1 (0.1 mg/m^2), 8 Hr): 280 ± 97.0 pg/mL
MIP-1β plasma level (Cohort 1 (0.1 mg/m^2), 8 Hr): 204 ± 74.0 pg/mL
TNFα plasma level (Cohort 1 (0.1 mg/m^2), 8 Hr): 10.3 ± 4.0 pg/mL
G-CSF plasma level (Cohort 1 (0.1 mg/m^2), 24 Hr): 9.2 ± 2.5 pg/mL
MCP-1 plasma level (Cohort 1 (0.1 mg/m^2), 24 Hr): 250 ± 85.0 pg/mL
MIP-1β plasma level (Cohort 1 (0.1 mg/m^2), 24 Hr): 207 ± 73.8 pg/mL
TNFα plasma level (Cohort 1 (0.1 mg/m^2), 24 Hr): 10.2 ± 3.6 pg/mL
G-CSF plasma level (Cohort 2 (0.2 mg/m^2), 0 Hr): 7.8 ± 3.2 pg/mL
MCP-1 plasma level (Cohort 2 (0.2 mg/m^2), 0 Hr): 245 ± 167 pg/mL
MIP-1β plasma level (Cohort 2 (0.2 mg/m^2), 0 Hr): 230 ± 84.0 pg/mL
TNFα plasma level (Cohort 2 (0.2 mg/m^2), 0 Hr): 9.7 ± 5.7 pg/mL
G-CSF plasma level (Cohort 2 (0.2 mg/m^2), 4 Hr): 11.5 ± 7.8 pg/mL
MCP-1 plasma level (Cohort 2 (0.2 mg/m^2), 4 Hr): 235 ± 84.6 pg/mL
MIP-1β plasma level (Cohort 2 (0.2 mg/m^2), 4 Hr): 239 ± 74.0 pg/mL
TNFα plasma level (Cohort 2 (0.2 mg/m^2), 4 Hr): 10.8 ± 5.0 pg/mL
G-CSF plasma level (Cohort 2 (0.2 mg/m^2), 8 Hr): 19.0 ± 16.5 pg/mL
MCP-1 plasma level (Cohort 2 (0.2 mg/m^2), 8 Hr): 298 ± 100 pg/mL
MIP-1β plasma level (Cohort 2 (0.2 mg/m^2), 8 Hr): 247 ± 84.7 pg/mL
TNFα plasma level (Cohort 2 (0.2 mg/m^2), 8 Hr): 10.5 ± 6.0 pg/mL
G-CSF plasma level (Cohort 2 (0.2 mg/m^2), 24 Hr): 15.4 ± 9.0 pg/mL
MCP-1 plasma level (Cohort 2 (0.2 mg/m^2), 24 Hr): 301 ± 159 pg/mL
MIP-1β plasma level (Cohort 2 (0.2 mg/m^2), 24 Hr): 280 ± 115 pg/mL
TNFα plasma level (Cohort 2 (0.2 mg/m^2), 24 Hr): 12.4 ± 6.1 pg/mL
G-CSF plasma level (Cohort 3 (0.4 mg/m^2), 0 Hr): 12.7 ± 6.0 pg/mL
MCP-1 plasma level (Cohort 3 (0.4 mg/m^2), 0 Hr): 129 ± 30.0 pg/mL
MIP-1β plasma level (Cohort 3 (0.4 mg/m^2), 0 Hr): 172 ± 59.0 pg/mL
TNFα plasma level (Cohort 3 (0.4 mg/m^2), 0 Hr): 9.0 ± 4.9 pg/mL
G-CSF plasma level (Cohort 3 (0.4 mg/m^2), 4 Hr): 9.5 ± 0.9 pg/mL
MCP-1 plasma level (Cohort 3 (0.4 mg/m^2), 4 Hr): 137 ± 30.7 pg/mL
MIP-1β plasma level (Cohort 3 (0.4 mg/m^2), 4 Hr): 215 ± 65.6 pg/mL
TNFα plasma level (Cohort 3 (0.4 mg/m^2), 4 Hr): 10.8 ± 3.3 pg/mL
G-CSF plasma level (Cohort 3 (0.4 mg/m^2), 8 Hr): 63.8 ± 60.1 pg/mL
MCP-1 plasma level (Cohort 3 (0.4 mg/m^2), 8 Hr): 251 ± 87.9 pg/mL
MIP-1β plasma level (Cohort 3 (0.4 mg/m^2), 8 Hr): 213 ± 88.8 pg/mL
TNFα plasma level (Cohort 3 (0.4 mg/m^2), 8 Hr): 9.6 ± 3.1 pg/mL
G-CSF plasma level (Cohort 3 (0.4 mg/m^2), 24 Hr): 15.8 ± 3.5 pg/mL
MCP-1 plasma level (Cohort 3 (0.4 mg/m^2), 24 Hr): 99.5 ± 6.9 pg/mL
MIP-1β plasma level (Cohort 3 (0.4 mg/m^2), 24 Hr): 173 ± 67.4 pg/mL
TNFα plasma level (Cohort 3 (0.4 mg/m^2), 24 Hr): 10.0 ± 2.9 pg/mL
G-CSF plasma level (Cohort 4 (0.8 mg/m^2), 0 Hr): 13.2 ± 8.9 pg/mL
MCP-1 plasma level (Cohort 4 (0.8 mg/m^2), 0 Hr): 260 ± 150 pg/mL
MIP-1β plasma level (Cohort 4 (0.8 mg/m^2), 0 Hr): 165 ± 63.9 pg/mL
TNFα plasma level (Cohort 4 (0.8 mg/m^2), 0 Hr): 16.7 ± 12.6 pg/mL
G-CSF plasma level (Cohort 4 (0.8 mg/m^2), 4 Hr): 49.8 ± 80.3 pg/mL
MCP-1 plasma level (Cohort 4 (0.8 mg/m^2), 4 Hr): 1037 ± 1920 pg/mL
MIP-1β plasma level (Cohort 4 (0.8 mg/m^2), 4 Hr): 450 ± 641 pg/mL
TNFα plasma level (Cohort 4 (0.8 mg/m^2), 4 Hr): 22.0 ± 14.6 pg/mL
G-CSF plasma level (Cohort 4 (0.8 mg/m^2), 8 Hr): 137 ± 124 pg/mL
MCP-1 plasma level (Cohort 4 (0.8 mg/m^2), 8 Hr): 673 ± 386 pg/mL
MIP-1β plasma level (Cohort 4 (0.8 mg/m^2), 8 Hr): 287 ± 177 pg/mL
TNFα plasma level (Cohort 4 (0.8 mg/m^2), 8 Hr): 19.0 ± 10.6 pg/mL
G-CSF plasma level (Cohort 4 (0.8 mg/m^2), 24 Hr): 35.7 ± 14.7 pg/mL
MCP-1 plasma level (Cohort 4 (0.8 mg/m^2), 24 Hr): 267 ± 104 pg/mL
MIP-1β plasma level (Cohort 4 (0.8 mg/m^2), 24 Hr): 183 ± 55.9 pg/mL
TNFα plasma level (Cohort 4 (0.8 mg/m^2), 24 Hr): 17.5 ± 8.7 pg/mL

Source: US20120219615A1, “Therapeutic Use of a TLR Agonist and Combination Therapy” (The Trustees of the University of Pennsylvania, priority 2010, published 2012)
